According to publication PMC8991960, “A Bivalent Activatable Fluorescent Probe for Screening and Intravital Imaging of Chemotherapy‐Induced Cancer Cell Death” (Angewandte Chemie (International Ed. in English), 2021):

Tested on: MMTV-PyMT mammary gland tumours
Assay: Intravital imaging of cisplatin-induced apoptosis in breast cancer model
Assay type: in vivo, mouse
Settings: cisplatin 10 mg kg-1 i.p., Apotracker Red 650 ng i.v. 72 h later, two-photon microscopy, MMTV-PyMT;ACTB-ECFP mice
Source text: Optical intravital imaging is increasingly used for the preclinical evaluation of anticancer drugs in vivo. Although imaging modalities like computed tomography, positron emission tomography and magnetic resonance imaging can help to visualise whole intact organs in a non‐invasive manner,[26] they lack the spatiotemporal resolution needed to study dynamic interactions between individual tumour and stromal cells. This feature is critical to understand the mechanism of action of anticancer drugs and how they can affect interactions between cancer cells and immune cells in the tumour microenvironment.[27] Intravital imaging heavily relies on the acquisition of fluorescence signals using multiphoton microscopy, which provides cellular resolution with deep tissue penetration (≈500 μm) and minimal photodamage.[28] […] First, we analysed the chemical stability of Apotracker Red for in vivo studies by incubating the probe in mouse serum. […] When primary tumours measured around 0.5–1 cm in diameter, we administered cisplatin intraperitoneally (10 mg kg^−1). […]
were centrifuged (300 g, 5 min, r.t.), washed once with PBS before addition of 0.05% Trypsin, 0.02% ethylenediaminetetraacetic acid (EDTA) in Hank’s balanced salt solution (HBSS) and incubation at 37°C for 5 min. […] Histograms and mean fluorescence intensities of apoptotic cells were measured on a 5L LSR flow cytometer under the following […]

SMILES: N.N.[Cl][Pt][Cl] [cisplatin]
- Apotracker Red fluorescence in tumours of treated mice (intravital imaging): strong red fluorescent signals indicating cancer cell death induced by the drug
